From patent publication US20140018426A1, “FOOD OR BEVERAGE COMPOSITION FORTIFIED WITH THYRONAMINES AND/OR THYRONAMINE PRECURSORS” (priority 2009, published 2014)
“And” between values parts separate entries of the source, which are not always exact repeats. Equal values may be shown once. Read-outs that look alike come from different tables or passages of the source.

How the values were obtained:
[1] = tested on: mice; conditions: cited from earlier work
[2] = tested on: rat working heart preparation; conditions: cited from earlier work
[3] = tested on: hypercholesterolemic patients; conditions: cited from earlier work; for decrease in body weight: 300 mg daily for 8 months
[4] = tested on: LDLr+/−; assay: Serum triglycerides, LDLr+/− mice on Western Diet, daily oral T2; format: in vivo; conditions: low and high dose T2
From the text: (§1) Mice in the study were fed a standard lab chow referred to as the “Western Diet.” The overall level of fat and the saturated nature of the fat are representative diets typical in the industrialized west that are linked to risk of cardiovascular disease in humans. The formula is used primarily with genetically manipulated rodent models that are susceptible to high cholesterol and cardiovascular disease. The diet may also be useful in diet-induced obesity, diabetes, and metabolic syndrome models. High cholesterol, obesity, and diabetes are each associated increased risk for cardiovascular disease. The composition of the Western Diet is shown below in Table 1.
(§2) C57 is a wild-type strain, LDLr+/− are a strain carrying one functional copy of the LDLr gene, and the LDLrO animals are total LDLr knockouts. The LDLr gene encodes for the LDL receptor protein, which is responsible for scavenging LDL with bound cholesterol from the blood and transporting it into cells. Both heterozygous and homozygous LDLr knockout animals develop very high serum cholesterol levels and are considered to be a good model for heterozygous and homozygous familial hypercholesterolemia in humans.
(§3) LDLr knockout animals have zero LDL receptor function. […] This effect was independent of weight loss.

[5] = tested on: TR β gene expression; conditions: cited from earlier work
[6] = Body weight, LDLr+/− mice on Western Diet, daily oral T2; format: in vivo; set-up: Body weight, Ave: unit not given here
From the text: as §1, §2, §3

[7] = tested on: rats; conditions: 250 mcg/kg p.o. q.d. for 30 days, compared to controls; cited from earlier work
[8] = tested on: LDLr+/−; assay: Blood Sugar (serum glucose), LDLr+/− mice on Western Diet, daily oral T2; format: in vivo; conditions: for Blood Sugar, individual animal: LDLr+/− mice, Western Diet
From the text: as §1, §2, §3

[9] = tested on: LDLr0; assay: Blood Sugar (serum glucose), LDLr knockout mice on Western Diet, daily oral T2; format: in vivo; conditions: for Blood Sugar, individual animal: LDLr0 mice, Western Diet
From the text: as §1, §2, §3

[10] = tested on: LDLr0; assay: Serum triglycerides, LDLr knockout mice on Western Diet, daily oral T2; format: in vivo; conditions: low and high dose T2
From the text: as §1, §2, §3

[11] = tested on: C57; assay: Serum triglycerides, C57 mice on Western Diet, daily oral T2; format: in vivo; conditions: C57, low and high dose T2
From the text: as §1, §2, §3

[12] = tested on: thyroid receptor homodimer; conditions: in contrast to T3; cited from earlier work
[13] = tested on: growth hormone gene expression; conditions: cited from earlier work
[14] = tested on: C57; assay: Blood Sugar (serum glucose), C57 mice on Western Diet, daily oral T2; format: in vivo; conditions: for Blood Sugar, individual animal: C57 mice, Western Diet
From the text: as §1, §2, §3

[15] = Body weight, C57 mice on Western Diet, daily oral T2; format: in vivo
From the text: as §1, §2, §3

[16] = Body weight, LDLr knockout mice on Western Diet, daily oral T2; format: in vivo
From the text: as §1, §2, §3

[17] = tested on: TR α1, β1 and β2; conditions: in vitro studies; cited from earlier work
[18] = target: serotonin transporter (Homo sapiens, UniProt P31645); conditions: cited from earlier work
[19] = tested on: vesicular monoamine transporter; conditions: cited from earlier work
[20] = target: serotonin 5HT-2c receptor (Homo sapiens, UniProt P28335); conditions: cited from earlier work
[21] = target: alpha-2A adrenergic receptor (Homo sapiens, UniProt P08913); conditions: cited from earlier work
[22] = target: dopamine transporter (Homo sapiens, UniProt Q01959); conditions: cited from earlier work
[23] = target: trace amine-associated receptor 1 (TAAR1) (Homo sapiens, UniProt Q96RJ0); conditions: cited from earlier work
[24] = tested on: middle cerebral artery occlusion (MCAO) stroke model in mice; conditions: cited from earlier work
[25] = tested on: mice; conditions: single dose T1AM (normal 0.83); cited from earlier work
[26] = target: norepenephrin transporter (Homo sapiens, UniProt P23975); conditions: cited from earlier work
[27] = tested on: Siberian hamsters (Phodopus sungorus); conditions: cited from earlier work
[28] = tested on: mice; conditions: cited from earlier work; remark: listed apart in the source

Sequence of trace amine-associated receptor 1 (TAAR1) (Q96RJ0 whole entry, species assumed): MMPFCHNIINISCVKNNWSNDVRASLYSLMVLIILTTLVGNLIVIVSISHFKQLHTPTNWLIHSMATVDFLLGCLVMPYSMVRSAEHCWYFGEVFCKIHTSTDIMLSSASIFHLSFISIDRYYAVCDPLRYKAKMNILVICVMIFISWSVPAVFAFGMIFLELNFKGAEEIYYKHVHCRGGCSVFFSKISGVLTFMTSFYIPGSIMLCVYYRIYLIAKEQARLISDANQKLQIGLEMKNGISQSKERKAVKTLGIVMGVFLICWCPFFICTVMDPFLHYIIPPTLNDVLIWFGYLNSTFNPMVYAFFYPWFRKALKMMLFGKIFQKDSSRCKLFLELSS
Sequence of serotonin 5HT-2c receptor (P28335 33-458): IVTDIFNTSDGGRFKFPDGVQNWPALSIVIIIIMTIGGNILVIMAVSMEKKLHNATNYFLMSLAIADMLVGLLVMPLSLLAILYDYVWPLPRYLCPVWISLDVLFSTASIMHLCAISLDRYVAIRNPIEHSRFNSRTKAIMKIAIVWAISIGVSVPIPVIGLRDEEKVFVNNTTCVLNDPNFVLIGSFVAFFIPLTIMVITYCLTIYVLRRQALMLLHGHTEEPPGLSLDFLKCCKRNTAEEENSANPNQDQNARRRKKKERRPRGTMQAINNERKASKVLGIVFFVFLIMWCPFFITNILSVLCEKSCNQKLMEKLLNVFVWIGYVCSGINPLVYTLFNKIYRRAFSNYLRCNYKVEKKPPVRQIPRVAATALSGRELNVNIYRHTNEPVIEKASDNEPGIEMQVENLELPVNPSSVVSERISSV
Sequence of dopamine transporter (Q01959 whole entry): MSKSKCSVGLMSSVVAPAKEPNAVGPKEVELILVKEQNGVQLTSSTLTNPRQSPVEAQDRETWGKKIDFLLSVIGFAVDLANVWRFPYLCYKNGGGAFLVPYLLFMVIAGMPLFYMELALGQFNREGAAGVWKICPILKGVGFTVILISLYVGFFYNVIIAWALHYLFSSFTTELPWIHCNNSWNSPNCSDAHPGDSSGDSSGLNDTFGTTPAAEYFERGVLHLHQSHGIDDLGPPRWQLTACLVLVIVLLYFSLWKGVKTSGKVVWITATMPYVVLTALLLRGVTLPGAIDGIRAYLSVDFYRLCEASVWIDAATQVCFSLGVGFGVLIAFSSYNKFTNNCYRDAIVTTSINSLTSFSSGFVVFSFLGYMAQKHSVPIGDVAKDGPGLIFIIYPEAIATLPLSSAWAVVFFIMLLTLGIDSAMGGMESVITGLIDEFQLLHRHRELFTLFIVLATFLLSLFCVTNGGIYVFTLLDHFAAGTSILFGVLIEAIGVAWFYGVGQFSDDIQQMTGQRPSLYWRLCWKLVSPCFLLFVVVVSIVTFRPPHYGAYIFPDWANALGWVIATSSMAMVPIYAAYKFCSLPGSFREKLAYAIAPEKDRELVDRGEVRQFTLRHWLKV
Sequence of alpha-2A adrenergic receptor (P08913 whole entry): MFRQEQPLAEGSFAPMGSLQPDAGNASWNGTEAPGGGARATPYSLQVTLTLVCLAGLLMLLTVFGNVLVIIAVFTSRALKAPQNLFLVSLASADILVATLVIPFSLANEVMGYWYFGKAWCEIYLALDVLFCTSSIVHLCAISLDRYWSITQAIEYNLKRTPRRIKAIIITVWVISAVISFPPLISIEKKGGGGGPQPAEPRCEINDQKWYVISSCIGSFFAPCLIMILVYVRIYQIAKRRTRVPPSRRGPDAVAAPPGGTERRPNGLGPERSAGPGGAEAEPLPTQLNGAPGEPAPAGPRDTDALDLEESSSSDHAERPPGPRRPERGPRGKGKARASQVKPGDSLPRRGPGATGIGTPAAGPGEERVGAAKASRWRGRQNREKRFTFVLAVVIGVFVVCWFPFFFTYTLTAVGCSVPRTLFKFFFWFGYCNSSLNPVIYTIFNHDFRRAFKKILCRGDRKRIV
Sequence of norepenephrin transporter (P23975 whole entry): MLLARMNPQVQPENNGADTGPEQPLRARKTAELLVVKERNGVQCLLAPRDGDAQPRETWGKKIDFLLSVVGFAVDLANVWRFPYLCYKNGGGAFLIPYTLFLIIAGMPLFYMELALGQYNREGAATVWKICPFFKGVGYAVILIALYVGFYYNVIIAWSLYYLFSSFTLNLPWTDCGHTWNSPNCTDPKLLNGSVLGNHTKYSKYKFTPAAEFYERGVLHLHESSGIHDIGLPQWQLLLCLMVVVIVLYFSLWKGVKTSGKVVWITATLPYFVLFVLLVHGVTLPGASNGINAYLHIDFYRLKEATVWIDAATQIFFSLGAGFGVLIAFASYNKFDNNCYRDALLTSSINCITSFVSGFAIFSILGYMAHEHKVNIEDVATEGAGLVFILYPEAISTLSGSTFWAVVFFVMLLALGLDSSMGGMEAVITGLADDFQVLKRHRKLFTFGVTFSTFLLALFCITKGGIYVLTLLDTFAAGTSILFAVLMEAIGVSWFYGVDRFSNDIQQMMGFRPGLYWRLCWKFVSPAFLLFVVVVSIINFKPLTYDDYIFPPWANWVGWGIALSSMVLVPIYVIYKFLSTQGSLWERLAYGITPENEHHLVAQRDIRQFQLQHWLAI
Sequence of serotonin transporter (P31645 whole entry): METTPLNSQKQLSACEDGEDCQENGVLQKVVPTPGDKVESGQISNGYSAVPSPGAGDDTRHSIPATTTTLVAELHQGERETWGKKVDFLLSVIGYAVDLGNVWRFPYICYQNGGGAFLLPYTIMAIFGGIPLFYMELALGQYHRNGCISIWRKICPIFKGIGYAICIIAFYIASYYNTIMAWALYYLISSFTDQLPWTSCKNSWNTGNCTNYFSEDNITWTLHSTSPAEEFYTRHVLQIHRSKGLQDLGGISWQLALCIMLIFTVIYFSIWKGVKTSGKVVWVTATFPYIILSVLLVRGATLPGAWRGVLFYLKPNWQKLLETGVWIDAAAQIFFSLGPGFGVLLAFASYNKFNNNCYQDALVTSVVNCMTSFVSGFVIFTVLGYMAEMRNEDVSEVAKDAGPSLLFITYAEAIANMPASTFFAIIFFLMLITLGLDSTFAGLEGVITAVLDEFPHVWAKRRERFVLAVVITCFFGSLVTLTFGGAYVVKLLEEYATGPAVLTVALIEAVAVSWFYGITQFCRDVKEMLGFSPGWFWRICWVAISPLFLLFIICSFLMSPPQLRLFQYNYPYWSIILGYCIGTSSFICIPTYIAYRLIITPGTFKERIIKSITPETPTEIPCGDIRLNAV

In the case of `NCCc1ccc(Oc2ccc(O)cc2)cc1` [T0AM, thyronamine], the “potency on body temperature compared with T1AM” value ([1]; similar results reported as for T1AM) is listed as “less potent” and the “potency as compared to T1AM (fold less potent)” value ([2]; rat working heart preparation) is listed as “about 10 fold”.

For `N[C@H](Cc1cc(I)c(Oc2ccc(O)cc2)c(I)c1)C(=O)O` [3,5-D-T2], the “patients with coronary artery disease with increased anginal symptoms” value ([3]; 300 mg daily) is given as 7 of 13, the “total serum cholesterol decrease” value ([3]; at 20 weeks, 300 mg daily) is given as 20% and the “decrease in body weight” value ([3]; euthyroid subjects) is given as 5%. The “effect of doses of less than 250 mg/day” value ([3]; human, in vivo) was “ineffective”, the “decrease in body weight” value ([3]; hypothyroid patients) was 8% and the “mean heart rate on treatment” value ([3]; increase from 76, 300 mg daily) was 88 beats per minute.

In the case of `N[C@@H](Cc1cc(I)c(Oc2ccc(O)cc2)c(I)c1)C(=O)O` [T2, (2S)-2-amino-3-[4-(4-hydroxyphenoxy)-3,5-diiodophenyl]propanoic acid], the “effect on serum triglyceride levels” value [4] is listed as “did not affect”, the “less potent than T3 in decreasing TR β gene expression” value [5] is listed as 50% and the Body weight ([6]; High Dose T2, Day 1, individual animal, in g (unit assumed)) is listed as 31.4. For the same compound, the Body weight ([6]; High Dose T2, Day 2, individual animal, in g (unit assumed)) was 31.0 and 29.1 and 29.9, the Body weight ([6]; High Dose T2, Day 4, individual animal, in g (unit assumed)) was 29.0 and 27.9 and the “Body weight, Ave” value ([6]; Low Dose T2, Day 2, group average) was 28.1. For the same compound, the Body weight ([6]; Low Dose T2, Day 2, individual animal) was 282, the Body weight ([6]; Low Dose T2, Day 3, individual animal) was 29.7 and 31.4 and the Body weight ([6]; Low Dose T2, Day 4, individual animal) was 27.4. The Body weight ([6]; Low Dose T2, Day 5, individual animal) was 29.5, the Body weight ([6]; Low Dose T2, Day 6, individual animal) was 29.1 and the Body weight ([6]; Low Dose T2, Day 7, individual animal) was 31.0 and 29.6 (2×) and 28.2. For the same compound, the “effect on weight gain” value ([6]; low and high dose T2) was “did not affect”, the decrease body weight [7] was 13% and the “decrease hepatic fat mass” value [7] was 50%. For the same compound, the “increase hepatic fat oxidation” value [7] was 42%, the lower cholesterol [7] was 18% and the lower serum triglycerides [7] was 52%. The “Blood Sugar, individual animal” value ([8]; 1 Week High Dose T2) was 99 and 94 and 80, the “Blood Sugar, individual animal” value ([8]; 1 Week Low Dose T2) was 210 and the “lower blood sugar levels, average” value ([8]; all genetic groups (LDLr+/−), high doses of T2, vs controls) was 45-50%. The “Blood Sugar, individual animal” value ([9]; 1 Week High Dose T2) was 87, the “Blood Sugar, individual animal” value ([9]; 1 Week Low Dose T2) was 54 and 79 and the “lower blood sugar levels, average” value ([9]; all genetic groups (LDLr knockout), high doses of T2, vs controls) was 45-50%. The “effect on serum triglyceride levels” value [10] was “did not affect”, the “effect on serum triglyceride levels” value [11] was “did not affect” and the “effect on thyroid receptor homodimer formation” value [12] was “no effect”. For the same compound, the “potency relative to T3 in increasing growth hormone gene expression” value [13] was 1/100, the “Blood Sugar, individual animal” value ([14]; 1 Week High Dose T2) was 74 and 120 and 92 and the “Blood Sugar, individual animal” value ([14]; 1 Week Low Dose T2) was 190 and 120. The “lower blood sugar levels, average” value ([14]; all genetic groups (C57), high doses of T2, vs controls) was 45-50%, the Body weight, Ave ([15]; C57, High Dose T2, Day 1, group average) was 28.1 g and the Body weight ([15]; C57, High Dose T2, Day 1, individual animal) was 29.6 (2×) and 24.9 and 26.7. For the same compound, the Body weight ([15]; C57, High Dose T2, Day 2, individual animal, in g (unit assumed)) was 29.5 and 25.8 and 29.7, the Body weight ([15]; C57, High Dose T2, Day 3, individual animal, in g (unit assumed)) was 25.1 and 29.9 and 27.2 and the Body weight ([15]; C57, High Dose T2, Day 4, individual animal, in g (unit assumed)) was 29.1 and 28.7. For the same compound, the Body weight ([15]; C57, High Dose T2, Day 5, individual animal, in g (unit assumed)) was 29.1 and 28.5, the Body weight ([15]; C57, Low Dose T2, Day 2, individual animal) was 24.9 and the Body weight ([15]; C57, Low Dose T2, Day 4, individual animal) was 25.1. The Body weight ([15]; C57, Low Dose T2, Day 6, individual animal) was 29.9 and 24.8 and 28.7, the “effect on weight gain” value ([15]; C57, low and high dose T2) was “did not affect” and the Body weight ([16]; LDLr0, High Dose T2, Day 1, individual animal, in g (unit assumed)) was 27.4. The Body weight ([16]; LDLr0, High Dose T2, Day 2, individual animal, in g (unit assumed)) was 23.1 and 24.8, the Body weight ([16]; LDLr0, High Dose T2, Day 3, individual animal, in g (unit assumed)) was 22.8 and the Body weight ([16]; LDLr0, High Dose T2, Day 4, individual animal, in g (unit assumed)) was 24.8. For the same compound, the Body weight ([16]; LDLr0, High Dose T2, Day 5, individual animal, in g (unit assumed)) was 23.1, the Body weight ([16]; LDLr0, Low Dose T2, Day 6, individual animal) was 23.1 and the “effect on weight gain” value ([16]; LDLr knockout, low and high dose T2) was “did not affect”.

In the case of `N[C@@H](Cc1cc(I)c(Oc2ccc(O)c(I)c2)c(I)c1)C(=O)O` [T3, (2S)-2-amino-3-[4-(4-hydroxy-3-iodophenoxy)-3,5-diiodophenyl]propanoic acid], the “affinity for TR α1, β1 and β2, fold greater than that of T2” value [17] is listed as 40-500 fold.

For `NCCc1ccc(Oc2ccc(O)cc2)c(I)c1` [T1AM, 3-iodothyronamine], the “time for body temperature to return to normal” value ([1]; mice, depending on the T1AM dose) is given as 4 to 6 h, the “drop in body temperature” value ([1]; mice, injection) is given as “about 10 °C” and the “time of body temperature nadir after injection” value ([1]; mice) is given as “about 1 hour”. The serotonin transporter function [18] was “binds and inhibits”, the “vesicular monoamine transporter function” value [19] was “binds and inhibits” and the “serotonin 5HT-2c receptor activity” value [20] was “agonist”. For the same compound, the “alpha-2A adrenergic receptor activity” value [21] was “agonist”, the dopamine transporter function [22] was “binds and inhibits” and the TAAR1 activity [23] was “potent agonist”. For the same compound, the “reduction of infarct volume” value [24] was 40%, the “respiratory quotient (RQ) value” [25] was “approximately 0.7” and the norepenephrin transporter function [26] was “binds and inhibits”. For the same compound, the “respiratory quotient (RQ) value” ([27]; Siberian hamsters, single dose T1AM (normal 0.90)) was “approximately 0.7”, the “time of urine ketone content peak post-injection” value ([27]; Siberian hamsters) was 16 h and the “time to complete RQ shift post-injection” value ([27]; in vivo) was “about 4.5 hours”. For the same compound, the “persistence of 0.7 RQ after the T1AM injection” value ([27]; summer acclimatized Siberian hamsters) was “at least 24 h”, the “heart rate and systolic aortic pressure” value ([2]; rat working heart at 37° C., compound in perfusion buffer) was “large and immediate decreases” and the “time for blood glucose to return to baseline” value [28] was 3 to 4 h. The “time of blood glucose peak after the injection” value [28] was 1 h and the increased blood glucose ([28]; injection, at peak) was 2-5 fold.
